Measured values reported in patent US20230391772A1, “METHODS AND COMPOSITIONS FOR TARGETED PROTEIN DEGRADATION” (Ranok Therapeutics (Hangzhou) Co. Ltd., priority 2020, published 2023).

Key:
HSP90a protein = target: T1, HSP90a protein (Homo sapiens, UniProt P07900); experiment: HSP90α-binding fluorescent polarization (FP) assay, BODIPY-labeled RNK04010 probe; conditions: FP competition with RNK04010 (BODIPY-labeled), 5 nM, 300 min at 25° C.
T1 construct: purchased BPS Bioscience 50298
How it was run: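 Test compounds (2.5-fold serial dilution, 20 μM to 5.2 nM) competed with a fluorescent tracer for N-terminal HSP90a, with fluorescence polarization as the read-out. FITC-geldanamycin tracer was used at 5 nM final with 120 min incubation at 25° C; BODIPY-labeled RNK04010 was used at 5 nM final with 300 min incubation.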

[1] = test system: NCI-H358 human non-small cell lung cancer; experiment: NCI-H358 CCK-8 proliferation assay; type: cell-based; conditions: NCI-H358 cells, 72 hr
How it was run: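 MIA PaCa-2 (2 copies KRAS(G12C)), NCI-H358 and NCI-H23 (1 copy KRAS(G12C) each) were exposed to compound in 3-fold serial dilutions from 20 μM to 1.02 nM. Viability was read as CCK-8 absorbance, and % inhibition was computed against DMSO-treated cells, with cell-free DMSO medium as blank.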

Row | Structure (SMILES) | IC50 (HSP90a protein) | EC50 [1]
1 | C=CC(=O)N1CCN(C2CN(c3cc(O)cc4ccccc34)Cc3nc(NCCC(=O)NCCOCCOCCOc4ccc(-n5c(O)nnc5-c5cc(C(C)C)c(O)cc5O)cc4)ncc32)CC1 (centres unmarked) [Compound 9, 3-((5-(4-acryloylpiperazin-1-yl)-7-(3-hydroxynaphthalen-1-yl)-5,6,7,8-tetrahydropyrido[3,4-d]pyrimidin-2-yl)amino)-N-(2-(2-(2-(4-(3-(2,4-dihydroxy-5-isopropylphenyl)-5-hydroxy-4H-1,2,4-triazol-4-yl)phenoxy)ethoxy)ethoxy)ethyl)propanamide, trifluoroacetic acid] | 100 to 1000 nM | > 1000 nM
2 | CC(=O)N1CCN(c2nc(NCCC(=O)NCc3ccc(-n4c(O)nnc4-c4cc(C(C)C)c(O)cc4O)cc3F)nc3c2CCN(c2cc(O)cc4ccccc24)C3)CC1 [Compound 49, 3-((4-(4-acetylpiperazin-1-yl)-7-(3-hydroxynaphthalen-1-yl)-5,6,7,8-tetrahydropyrido[3,4-d]pyrimidin-2-yl)amino)-N-(4-(3-(2,4-dihydroxy-5-isopropylphenyl)-5-hydroxy-4H-1,2,4-triazol-4-yl)-2-fluorobenzyl)propanamide, trifluoroacetic acid] | 100 to 1000 nM | > 1000 nM
3 | C=CC(=O)N1CCN(c2nc(NCCC(=O)N3CCN(c4ccc(-n5c(O)nnc5-c5cc(C(C)C)c(O)cc5O)cc4)CC3)nc3c2CCN(c2cc(O)cc4ccccc24)C3)CC1 [Compound 2, 1-(4-(2-((3-(4-(4-(3-(2,4-dihydroxy-5-isopropylphenyl)-5-hydroxy-4H-1,2,4-triazol-4-yl)phenyl)piperazin-1-yl)-3-oxopropyl)amino)-7-(3-hydroxynaphthalen-1-yl)-5,6,7,8-tetrahydropyrido[3,4-d]pyrimidin-4-yl)piperazin-1-yl)prop-2-en-1-one, trifluoroacetic acid] | 100 to 1000 nM | > 1000 nM
4 | C=CC(=O)N1CCN(c2nc(NCCC(=O)NCCOCCOc3ccc(-n4c(O)nnc4-c4cc(C(C)C)c(O)cc4O)cc3)nc3c2CCN(c2cc(O)cc4ccccc24)C3)CC1 [Compound 72, trifluoroacetic acid] | < 100 nM | > 1000 nM
5 | CCCc1cc(-c2nnc(O)n2-c2ccc(CN3CCN(CC4CCN(C(=O)CCNc5nc6c(c(N7CCN(C(=O)CC)CC7)n5)CCN(c5cc(O)cc7ccccc57)C6)CC4)CC3)cc2)c(O)cc1O [Compound 52, 1-(4-((4-(4-(3-(2,4-dihydroxy-5-propylphenyl)-5-hydroxy-4H-1,2,4-triazol-4-yl)benzyl)piperazin-1-yl)methyl)piperidin-1-yl)-3-((7-(3-hydroxynaphthalen-1-yl)-4-(4-propionylpiperazin-1-yl)-5,6,7,8-tetrahydropyrido[3,4-d]pyrimidin-2-yl)amino)propan-1-one] | 100 to 1000 nM | > 1000 nM
6 | CC(=O)N1CCN(c2nc(NCCC(=O)NCCc3ccc(-n4c(O)nnc4-c4cc(C(C)C)c(O)cc4O)cc3)nc3c2CCN(c2cc(O)cc4ccccc24)C3)CC1 [Compound 22, 3-((4-(4-acetylpiperazin-1-yl)-7-(3-hydroxynaphthalen-1-yl)-5,6,7,8-tetrahydropyrido[3,4-d]pyrimidin-2-yl)amino)-N-(4-(3-(2,4-dihydroxy-5-isopropylphenyl)-5-hydroxy-4H-1,2,4-triazol-4-yl)phenethyl)propanamide, trifluoroacetic acid] | < 100 nM | > 1000 nM
7 | CCC(=O)N1CCN(c2nc(NCCC(=O)NCCOc3ccc(-n4c(O)nnc4-c4cc(C(C)C)c(O)cc4O)cc3)nc3c2CCN(c2cc(O)cc4ccccc24)C3)CC1 [Compound 51, N-(2-(4-(3-(2,4-dihydroxy-5-isopropylphenyl)-5-hydroxy-4H-1,2,4-triazol-4-yl)phenoxy)ethyl)-3-((7-(3-hydroxynaphthalen-1-yl)-4-(4-propionylpiperazin-1-yl)-5,6,7,8-tetrahydropyrido[3,4-d]pyrimidin-2-yl)amino)propanamide, trifluoroacetic acid] | 100 to 1000 nM | > 1000 nM
8 | C=CC(=O)N1CCN(c2nc(NCCC(=O)NCCOCCOCCN[C@@H](C)C(=O)N[C@H](C(=O)N3CCC[C@H]3C(=O)Nc3snnc3-c3ccccc3)C3CCCCC3)nc3c2CCN(c2cc(O)cc4ccccc24)C3)CC1 [Compound 20, (S)-1-((2S,5S)-18-((4-(4-acryloylpiperazin-1-yl)-7-(3-hydroxynaphthalen-1-yl)-5,6,7,8-tetrahydropyrido[3,4-d]pyrimidin-2-yl)amino)-2-cyclohexyl-5-methyl-4,16-dioxo-9,12-dioxa-3,6,15-triazaoctadecanoyl)-N-(4-phenyl-1,2,3-thiadiazol-5-yl)pyrrolidine-2-carboxamide, trifluoroacetic acid] | > 1000 nM | > 1000 nM
9 | CCC(=O)N1CCN(c2nc(NCCC(=O)N3CCN(Cc4ccc5c(c4)CN(C(=O)c4cc(CC)c(O)cc4O)C5)CC3)nc3c2CCN(c2cc(O)cc4ccccc24)C3)CC1 [Compound 66, 1-(4-((2-(5-ethyl-2,4-dihydroxybenzoyl)isoindolin-5-yl)methyl)piperazin-1-yl)-3-((7-(3-hydroxynaphthalen-1-yl)-4-(4-propionylpiperazin-1-yl)-5,6,7,8-tetrahydropyrido[3,4-d]pyrimidin-2-yl)amino)propan-1-one, trifluoroacetic acid] | > 1000 nM | > 1000 nM

More lines, now with the values ahead:

Row | IC50 (HSP90a protein) | EC50 [1] | Structure (SMILES)
10 | 100 to 1000 nM | 100 to 1000 nM | C=CC(=O)N1CCN(c2nc(NCCC(=O)N3CCC(Cc4ccc(-n5c(O)nnc5-c5cc(C(C)C)c(O)cc5O)cc4)CC3)nc3c2CCN(c2cccc4ccccc24)C3)C[C@H]1CC#N [Compound 84, (R)-2-(1-acryloyl-4-(2-((3-(4-(4-(3-(2,4-dihydroxy-5-isopropylphenyl)-5-hydroxy-4H-1,2,4-triazol-4-yl)benzyl)piperidin-1-yl)-3-oxopropyl)amino)-7-(naphthalen-1-yl)-5,6,7,8-tetrahydropyrido[3,4-d]pyrimidin-4-yl)piperazin-2-yl)acetonitrile, trifluoroacetic acid]
11 | 100 to 1000 nM | > 1000 nM | C=CC(=O)N1CCN(c2nc(NCCC(=O)N3CCN(c4ccc(-n5c(O)nnc5-c5cc(C(C)C)c(O)cc5O)cc4)CC3)nc3c2CCN(c2cccc4ccccc24)C3)C[C@H]1CC#N [Compound 90, (R)-2-(1-acryloyl-4-(2-((3-(4-(4-(3-(2,4-dihydroxy-5-isopropylphenyl)-5-hydroxy-4H-1,2,4-triazol-4-yl)phenyl)piperazin-1-yl)-3-oxopropyl)amino)-7-(naphthalen-1-yl)-5,6,7,8-tetrahydropyrido[3,4-d]pyrimidin-4-yl)piperazin-2-yl)acetonitrile, trifluoroacetic acid]
12 | 100 to 1000 nM | > 1000 nM | CCC(=O)N1CCN(c2nc(NCCC(=O)NCCOCCOc3ccc(-n4c(O)nnc4-c4cc(C(C)C)c(O)cc4O)cc3)nc3c2CCN(c2cc(O)cc4ccccc24)C3)CC1 [Compound 73, N-(2-(2-(4-(3-(2,4-dihydroxy-5-isopropylphenyl)-5-hydroxy-4H-1,2,4-triazol-4-yl)phenoxy)ethoxy)ethyl)-3-((7-(3-hydroxynaphthalen-1-yl)-4-(4-propionylpiperazin-1-yl)-5,6,7,8-tetrahydropyrido[3,4-d]pyrimidin-2-yl)amino)propanamide, trifluoroacetic acid]
13 | 100 to 1000 nM | > 1000 nM | CCC(=O)N1CCN(c2nc(NCCC(=O)NCCc3ccc(-n4c(O)nnc4-c4cc(C(C)C)c(O)cc4O)cc3)nc3c2CCN(c2cc(O)cc4ccccc24)C3)CC1 [Compound 74, N-(4-(3-(2,4-dihydroxy-5-isopropylphenyl)-5-hydroxy-4H-1,2,4-triazol-4-yl)phenethyl)-3-((7-(3-hydroxynaphthalen-1-yl)-4-(4-propionylpiperazin-1-yl)-5,6,7,8-tetrahydropyrido[3,4-d]pyrimidin-2-yl)amino)propanamide, trifluoroacetic acid]
14 | 100 to 1000 nM | > 1000 nM | C=CC(=O)N1CCN(c2nc(NCCC(=O)N3CCN(Cc4ccc(-n5c(O)nnc5-c5cc(C(C)C)c(O)cc5O)cc4)CC3)nc3c2CCN(c2cccc4cccc(Cl)c24)C3)C[C@H]1CC#N [Compound 100, (R)-2-(1-acryloyl-4-(7-(8-chloronaphthalen-1-yl)-2-((3-(4-(4-(3-(2,4-dihydroxy-5-isopropylphenyl)-5-hydroxy-4H-1,2,4-triazol-4-yl)benzyl)piperazin-1-yl)-3-oxopropyl)amino)-5,6,7,8-tetrahydropyrido[3,4-d]pyrimidin-4-yl)piperazin-2-yl)acetonitrile, trifluoroacetic acid]
15 | 100 to 1000 nM | 100 to 1000 nM | CC(=O)N1CCN(c2nc(NCCC(=O)N3CCN(Cc4ccc(CN(C)Cc5ccc(-n6c(C(=O)NCC(F)(F)F)nnc6-c6cc(C(C)C)c(O)cc6O)cc5)cc4)CC3)nc3c2CCN(c2cccc4ccccc24)C3)C[C@H]1CC#N [Compound 124, (R)-4-(4-(((4-((4-(3-((4-(4-acetyl-3-(cyanomethyl)piperazin-1-yl)-7-(naphthalen-1-yl)-5,6,7,8-tetrahydropyrido[3,4-d]pyrimidin-2-yl)amino)propanoyl)piperazin-1-yl)methyl)benzyl)(methyl)amino)methyl)phenyl)-5-(2,4-dihydroxy-5-isopropylphenyl)-N-(2,2,2-trifluoroethyl)-4H-1,2,4-triazole-3-carboxamide, trifluoroacetic acid]
16 | > 1000 nM | > 1000 nM | C=CC(=O)N1CCN(c2nc(NCCC(=O)NCc3ccc(-n4c(O)nnc4-c4ccc(O)cc4O)cc3)nc3c2CCN(c2cccc4ccccc24)C3)C[C@H]1CC#N [Compound 81]
